With `CN1C(C(=O)Nc2ccccn2)=C(O)c2sccc2S1(=O)=O` as the molecule, how does the solubility (mole fraction) (in PEG-400, 298.15 K) read?
Its solubility (mole fraction) is 0.0098.

What about the solubility (mole fraction) (in PEG-400, 303.15 K) of the same molecule?
The solubility (mole fraction) was 0.0134.

What about the solubility (mole fraction) (in PEG-400, 308.15 K) of the same molecule?
The solubility (mole fraction) was 0.0178.

What about the solubility (mole fraction) (in PEG-400, 313.15 K) of the same molecule?
The solubility (mole fraction) was 0.0228.

What about the solubility (mole fraction) (in PEG-400, 323.15 K) of the same molecule?
Its solubility (mole fraction) is 0.035.

And the solubility (mole fraction) (in water, 298.15 K)?
Its solubility (mole fraction) is 4.13e-06.

What about the solubility (mole fraction) (in water, 303.15 K) of the same molecule?
The solubility (mole fraction) was 5.1e-06.

What about the solubility (mole fraction) (in water, 308.15 K) of the same molecule?
Its solubility (mole fraction) is 6.62e-06.

And the solubility (mole fraction) (in water, 313.15 K)?
Its solubility (mole fraction) is 8.49e-06.

What about the solubility (mole fraction) (in water, 323.15 K) of the same molecule?
The solubility (mole fraction) was 1.4e-05.

— BigSolDB 2.1
